Test results published in patent publication US6291461A, “Stephacidin antitumor antibiotics” (Bristol-Myers Squibb Company, priority 1999, dated 2001).

Experiments:
A2780 ovarian, parental = assay: In vitro cytotoxicity (MTS assay), A2780; type: cell-based; settings: Homo sapiens, A2780, 72 h
Procedure: (§1) In vitro cytotoxicity was assessed in human carcinoma cells by the MTS (3-(4,5-dimethylthiazol-2-yl)-5-(3-carboxymethoxyphenyl)-2-(4-sulphenyl)-2H-tetrazolium, inner salt) assay (5). Cells were plated at 4,000 cell/well in 96 well microtiter plates and 24 hours later drugs were added and serial diluted. The cells were incubated at 37° form 72 hours at which time the tetrazolium dye, MTS at 333 μg/ml (final concentration),in combination with the electron coupling agent phenazine methosulfate at 25 μM (final concentration) was added. A dehydrogenase enzyme in live cells reduces the MTS to a form that absorbs light at 492 nm which can be quantitated spectrophotometrically. The greater the absorbance the greater the number of live cells. The results are expressed as an IC50, which is the drug concentration required to inhibit cell proliferation (i.e. absorbance at 492 nm) to 50% of that of untreated control cells.

[1] = test system: A2780/DDP ovarian, mutp53/bcl2+; assay: In vitro cytotoxicity (MTS assay), A2780/DDP; type: cell-based; settings: Homo sapiens, 72 h
Procedure: as §1

[2] = test system: A2780/Tax ovarian, Taxol resistant; assay: In vitro cytotoxicity (MTS assay), A2780/Tax; type: cell-based; settings: Homo sapiens, 72 h
Procedure: as §1

[3] = test system: PC3 prostate, testosterone independent; assay: In vitro cytotoxicity (MTS assay), PC3; type: cell-based; settings: Homo sapiens; PC3, 72 h
Procedure: as §1

[4] = test system: LNCaP prostate, testosterone sensitive; assay: In vitro cytotoxicity (MTS assay), LNCaP; type: cell-based, human; settings: for IC50: Homo sapiens, LNCaP, 72 h
Procedure: as §1

HCT116 colon, parental = assay: In vitro cytotoxicity (MTS assay), HCT116; type: cell-based; settings: Homo sapiens, HCT-116; HCT116, 72 h
Procedure: as §1

[5] = test system: HCT116/mdr+ colon, overexpresses Mdr+; assay: In vitro cytotoxicity (MTS assay), HCT116/mdr+; type: cell-based; settings: Homo sapiens, HCT-116, 72 h
Procedure: as §1

[6] = test system: HCT116/Topo colon, resistant to etoposide; assay: In vitro cytotoxicity (MTS assay), HCT116/Topo; type: cell-based; settings: Homo sapiens, HCT-116, 72 h
Procedure: as §1

[7] = test system: MCF-7 breast, estradiol sensitive; assay: In vitro cytotoxicity (MTS assay), MCF-7; type: cell-based; settings: Homo sapiens, MCF7; MCF-7, 72 h
Procedure: as §1

[8] = test system: SKBR3 breast, estradiol-independent; assay: In vitro cytotoxicity (MTS assay), SKBR3; type: cell-based; settings: Homo sapiens, SK-BR-3; SKBR3, 72 h
Procedure: as §1

LX-1 lung, sensitive = assay: In vitro cytotoxicity (MTS assay), LX-1; type: cell-based; settings: Homo sapiens; LX-1, 72 h
Procedure: as §1

LNCaP cells = assay: Apoptosis determination (TUNEL assay), LNCaP; type: cell-based, human; settings: for % of LNCaP Cells in Apoptosis: 24 h treatment; for induction of apoptosis: testosterone sensitive (LNCaP) cells
Procedure: (§2) Cells were plated, incubated overnight, treated with compound for 24 hours then harvested by trypsinization. For cell cycle analysis cells were trypsinized, permeated, stained with 50 ug/ml propidium iodide and analyzed by FACS. For apoptosis evaluation (TUNEL assay) cells were permeated and reacted with TdT and fluoresceinated dUTP for 3 hours following the procedure recommended by the APO-Direct kit (Pharmingen).

A2780 cells = assay: Apoptosis determination (TUNEL assay), A2780; type: cell-based, human; settings: for % of A2780 Cells in Apoptosis: 24 h treatment; for induction of apoptosis: (A2780)
Procedure: as §2

p53, mdr or bcl2 = assay: Mechanism of action: mediation by p53, mdr or bcl2; type: cell-based
[9] = test system: tubulin or topoisomerase II; assay: Mechanism of action: tubulin or topoisomerase II
Solubility = type: physicochemical
human tumor cell lines = assay: In vitro cytotoxicity against several human tumor cell lines; type: cell-based
Procedure: as §1

Compound	IC50 (A2780 ovarian, parental) [nM]	IC50 [1] [µM]	IC50 [2] [nM]	IC50 [3] [nM]	IC50 [4] [nM]	IC50 (HCT116 colon, parental) [nM]	IC50 [5] [µM]	IC50 [6] [µM]	IC50 [7] [nM]	IC50 [8] [nM]	IC50 (LX-1 lung, sensitive) [nM]	% of LNCaP Cells in Apoptosis (LNCaP cells; 0.1 x 72 hour cytotoxic IC50) [%]	% of LNCaP Cells in Apoptosis (LNCaP cells; 1 x 72 hour cytotoxic IC50) [%]	% of LNCaP Cells in Apoptosis (LNCaP cells; 5 x 72 hour cytotoxic IC50) [%]	% of LNCaP Cells in Apoptosis (LNCaP cells; 10 x 72 hour cytotoxic IC50) [%]	% of LNCaP Cells in Apoptosis (LNCaP cells; 20 x 72 hour cytotoxic IC50) [%]	induction of apoptosis (LNCaP cells)	% of A2780 Cells in Apoptosis (A2780 cells; 0.1 x 72 hour cytotoxic IC50)	% of A2780 Cells in Apoptosis (A2780 cells; 1 x 72 hour cytotoxic IC50)	% of A2780 Cells in Apoptosis (A2780 cells; 5 x 72 hour cytotoxic IC50) [%]	further results
CC1(C)C=Cc2c(ccc3c2[N+]([O-])=C2C(C)(C)C4CC56CCCN5C(=O)C4(NC6=O)C4N5C(=O)C67CCCN6C(=O)C56C(C7)C(C)(C)c5c(c7ccc8c(c7n5O)C=CC(C)(C)O8)C6C234)O1 (stereo not shown) [Stephacidin B]	330	0.43	260	370	60	460	0.46	0.42	270	320	380	0.02	0.00	0.05	4.52	11.13	potent inducers of apoptosis	.5%	.2%	1.0	selectivity in testosterone dependent LNCaP cells ([4]; LNCaP versus other cell lines): Good selectivity; % of A2780 Cells in Apoptosis (A2780 cells; 10 x 72 hour cytotoxic IC50): 33%; % of A2780 Cells in Apoptosis (A2780 cells; 20 x 72 hour cytotoxic IC50): 5%; induction of apoptosis (A2780 cells): potent inducers of apoptosis; effects mediated by p53, mdr or bcl2 (p53, mdr or bcl2): not mediated by p53, mdr or bcl2; tubulin or topoisomerase II mediated [9]: not tubulin or topoisomerase II mediated; Solubility (Solubility; hexane): insoluble; Solubility (Solubility; methanol, chloroform, acetone, acetonitrile, dimethyl sulfoxide, acetonitrile/methanol (1:1)): Soluble; Solubility (Solubility; water): insoluble
CC1(C)C=Cc2c(ccc3c4c([nH]c23)C(C)(C)C2CC35CCCN3C(=O)C2(C4)NC5=O)O1 (stereo not shown) [Stephacidin A]	4000	6.8	3600	2100	1000	2100	6.7	13.1	4200	2150	4220	0.02	0.00	0.15	5.75	11.81	potent inducers of apoptosis	1%	.8%	21	in vivo criteria for acceptable activity (human tumor cell lines; potency judged against applicant's criteria): within our in vivo criteria for acceptable activity; fold less potent (human tumor cell lines; relative potency in vitro, versus the other stephacidin): 10 fold; in vitro cytotoxicity (human tumor cell lines; several human tumor cell lines (Table 3)): potent in vitro cytotoxicity; % of A2780 Cells in Apoptosis (A2780 cells; 10 x 72 hour cytotoxic IC50): 14%; % of A2780 Cells in Apoptosis (A2780 cells; 20 x 72 hour cytotoxic IC50): 15%; induction of apoptosis (A2780 cells): potent inducers of apoptosis
